Data: ChEMBL document CHEMBL1152899, “Synthesis and preliminary screening of novel indole-3-methanamines as 5-HT4 receptor ligands” (Eur J Med Chem, 2009)
Active and inactive are the calls of the source. The rule behind the calls is not given here.

What was measured:
[1] = biological target: T1, 5-hydroxytryptamine receptor 4 (Homo sapiens, UniProt Q13639); experiment: Displacement of [3H]GR-113808 from human 5HT4b receptor expressed in COS7 cell membrane by scintillation counting
[2] = biological target: T1, 5-hydroxytryptamine receptor 4; experiment: Displacement of [3H]GR-113808 from human 5HT4b receptor expressed in COS7 cell membrane at 1 uM by scintillation counting; format: cell membranes; conditions: COS-7
[3] = biological target: T1, 5-hydroxytryptamine receptor 4; experiment: Displacement of [3H]GR-113808 from human recombinant 5HT4b receptor expressed in HEK293 cells by scintillation counting; format: cell-based

T1 sequence (Q13639 whole entry): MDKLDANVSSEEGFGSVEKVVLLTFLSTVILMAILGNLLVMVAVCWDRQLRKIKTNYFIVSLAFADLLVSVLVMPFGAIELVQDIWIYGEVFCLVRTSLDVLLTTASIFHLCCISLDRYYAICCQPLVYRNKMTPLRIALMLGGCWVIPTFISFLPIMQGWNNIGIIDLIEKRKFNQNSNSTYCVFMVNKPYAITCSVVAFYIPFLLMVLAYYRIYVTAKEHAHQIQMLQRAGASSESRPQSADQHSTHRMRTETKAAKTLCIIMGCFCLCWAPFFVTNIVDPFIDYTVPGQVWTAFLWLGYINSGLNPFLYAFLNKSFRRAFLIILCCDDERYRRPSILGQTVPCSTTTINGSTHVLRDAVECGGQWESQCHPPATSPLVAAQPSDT

Row | Compound | Ki [1] [nM] | Activity [2] | Ki [3] [nM]
1 | COc1ccc2[nH]cc(CNN3CCOCC3)c2c1 | 145 | Active | 
2 | COc1ccc2[nH]cc(CCN)c2c1 [5-METHOXYTRYPTAMINE] | 26.9 |  | 245
